From PubChem BioAssay (NCI)
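48-hour exposure; five concentrations; linearly interpolated endpoints. Definition used: TGI = concentration required for complete inhibition of growth.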

Legend:
Assay in all cases: NCI anticancer screen, dose series, 48 h
IGROV1 ovarian = test system: IGROV1 ovarian
DU-145 prostate = test system: DU-145 prostate
SK-MEL-2 melanoma = test system: SK-MEL-2 melanoma
M14 melanoma = test system: M14 melanoma
SK-MEL-28 melanoma = test system: SK-MEL-28 melanoma
K-562 leukemia = test system: K-562 leukemia
TK-10 renal = test system: TK-10 renal
MDA-MB-435 = test system: MDA-MB-435
HOP-62 NSCLC = test system: HOP-62 NSCLC
EKVX NSCLC = test system: EKVX NSCLC
HCT-116 colon = test system: HCT-116 colon
SNB-75 CNS = test system: SNB-75 CNS
KM12 colon = test system: KM12 colon
UO-31 renal = test system: UO-31 renal
A549 NSCLC = test system: A549 NSCLC
T-47D breast = test system: T-47D breast
OVCAR-8 ovarian = test system: OVCAR-8 ovarian
UACC-62 melanoma = test system: UACC-62 melanoma
HCT-15 colon = test system: HCT-15 colon
HT29 colon = test system: HT29 colon
OVCAR-5 ovarian = test system: OVCAR-5 ovarian
SW-620 colon = test system: SW-620 colon
HS 578T breast = test system: HS 578T breast
MCF7 breast = test system: MCF7 breast
SF-268 CNS = test system: SF-268 CNS
SK-MEL-5 melanoma = test system: SK-MEL-5 melanoma
LOX IMVI melanoma = test system: LOX IMVI melanoma
A498 renal = test system: A498 renal
U251 CNS = test system: U251 CNS
BT-549 breast = test system: BT-549 breast
HOP-92 NSCLC = test system: HOP-92 NSCLC
786-0 renal = test system: 786-0 renal
MDA-N = test system: MDA-N
SK-OV-3 ovarian = test system: SK-OV-3 ovarian
CAKI-1 renal = test system: CAKI-1 renal
ACHN renal = test system: ACHN renal
MDA-MB-231 breast = test system: MDA-MB-231 breast
COLO 205 colon = test system: COLO 205 colon
RXF 393 renal = test system: RXF 393 renal
CCRF-CEM leukemia = test system: CCRF-CEM leukemia
PC-3 prostate = test system: PC-3 prostate
SN12C renal = test system: SN12C renal
UACC-257 melanoma = test system: UACC-257 melanoma
HCC-2998 colon = test system: HCC-2998 colon
SF-295 CNS = test system: SF-295 CNS
MALME-3M melanoma = test system: MALME-3M melanoma
NCI-H522 lung = test system: NCI-H522 lung
OVCAR-4 ovarian = test system: OVCAR-4 ovarian
NCI-H23 lung = test system: NCI-H23 lung
OVCAR-3 ovarian = test system: OVCAR-3 ovarian
MOLT-4 leukemia = test system: MOLT-4 leukemia
NCI-H460 lung = test system: NCI-H460 lung
SF-539 CNS = test system: SF-539 CNS
RPMI-8226 leukemia = test system: RPMI-8226 leukemia
HL-60(TB) leukemia = test system: HL-60(TB) leukemia
NCI/ADR-RES ovarian = test system: NCI/ADR-RES ovarian
NCI-H226 lung = test system: NCI-H226 lung
SNB-19 CNS = test system: SNB-19 CNS
SR leukemia = test system: SR leukemia

Measured: TGI

CC1CC/C(=C\c2ccc(Cl)cc2)C(=O)/C1=C\c1ccc(Cl)cc1 (configuration not stated)
73 µM: COLO 205 colon
93.8 µM: HS 578T breast
57.3 µM: UACC-62 melanoma
44.9 µM: CAKI-1 renal
50.4 µM: HCT-15 colon
40.1 µM: SK-MEL-5 melanoma
50.3 µM: BT-549 breast
44.6 µM: OVCAR-5 ovarian
46.9 µM: IGROV1 ovarian
48.8 µM: M14 melanoma
57.9 µM: HOP-62 NSCLC
79.8 µM: TK-10 renal
17.7 µM: A498 renal
37.9 µM: SK-MEL-2 melanoma
41.5 µM: KM12 colon
63.7 µM: EKVX NSCLC
71.7 µM: RXF 393 renal
95.5 µM: SN12C renal
not listed: HCC-2998 colon | SF-295 CNS | MALME-3M melanoma | NCI-H522 lung | OVCAR-4 ovarian | NCI-H23 lung | OVCAR-3 ovarian | MOLT-4 leukemia | NCI-H460 lung | SF-539 CNS | RPMI-8226 leukemia | HL-60(TB) leukemia | NCI/ADR-RES ovarian | NCI-H226 lung | SNB-19 CNS | SR leukemia
> 100 µM: all other assays above

CN(C)c1ccc(/C=C(\NC(=O)c2ccccc2)c2nc3ccccc3c(=O)o2)cc1
not listed: SR leukemia
> 100 µM: all other assays above

CCC(C)C1=C(O)[N+]2([O-])Oc3ccc(-c4c(O)c(O)c(-c5ccc(O)cc5)c(OC(C)=O)c4OC(C)=O)cc3OC2(C(C)CC)C(=O)N1O (configuration not stated)
9.65 µM: CCRF-CEM leukemia
not listed: HOP-62 NSCLC | HS 578T breast | BT-549 breast | HOP-92 NSCLC | HCC-2998 colon
> 50 µM: all other assays above

O=S(=O)(O)c1cccc2ccc(O)c(N=Nc3ccc(S(=O)(=O)c4ccc(N=Nc5c(O)ccc6cccc(S(=O)(=O)O)c56)cc4)cc3)c12
not listed: MCF7 breast | LOX IMVI melanoma | A498 renal | HCC-2998 colon | NCI-H460 lung | SF-539 CNS | SR leukemia
> 100 µM: all other assays above
